# Laboratory results: ChEMBL document CHEMBL1128009, “Stereoselectivity of the positive inotropic effects of newer diazinone-cardiotonics” (Bioorg Med Chem Lett, 1994)
# What was measured:
# [1] = Calcium sensitizing activity; assay type: functional
# Phosphodiesterase 3 = Phosphodiesterase 3 (Homo sapiens, UniProt Q14432+Q13370); test: Inhibition of phosphodiesterase 3; assay type: protein assay
# [2] = Calcium sensitizing activity (Active); assay type: functional
# [3] = Calcium sensitizing activity (No Effect); assay type: functional
SMILES,EC50 [1] [µM],IC50 (Phosphodiesterase 3) [µM],EC50 [2],EC50 [3]
"COc1ccc(C(=O)N2CCCc3cc(C4=NNC(=O)SC4C)ccc32)cc1OC (single isomer, unassigned; (+))",1.7,,,
"CC1CC(=O)NN=C1c1ccc2[nH]c(-c3cc[nH]n3)nc2c1 (single isomer, unassigned; (+)) [MERIBENDAN]",470,1.6,,
"COc1ccc(-c2nc3cc(C4=NNC(=O)CC4C)ccc3[nH]2)cc1 (single isomer, unassigned; (+)) [PIMOBENDAN]",152,,,
"COc1ccc(C(=O)N2CCCc3cc(C4=NNC(=O)SC4C)ccc32)cc1OC (single isomer, unassigned; (-))",> 100,,,
"CC1CC(=O)NN=C1c1ccc2[nH]c(-c3cc[nH]n3)nc2c1 (single isomer, unassigned; (-)) [MERIBENDAN]",190,0.04,,
COc1ccc(-c2nc3cc(C4=NNC(=O)CC4C)ccc3[nH]2)cc1 (stereo in doubt) [PIMOBENDAN],100,,,
CC1CC(=O)NN=C1c1cc2ccc(OCCN3CCCCC3)cc2s1 (stereo in doubt; (+)),,14.8,Active,
CC1CC(=O)NN=C1c1cc2ccc(OCCN3CCCCC3)cc2s1 (stereo in doubt; (-)),,0.08,,Not Active
C[C@@H]1CC(=O)NN=C1c1ccc(NN=C(C#N)C#N)cc1 [LEVOSIMENDAN],> 100,0.008,,
CC1CC(=O)NN=C1c1ccc(NN=C(C#N)C#N)cc1 (stereo unspecified) [SIMENDAN],> 100,1.5,,
